A short description of data set [1]: TEM of assemblies in aqueous solution. Format: physicochemical. As to conditions: 1.0 wt %. The protocol:
Sample solution (5 sufficient to cover the grid surface) was placed on the grid. Approximately 10 sec later, sample was rinsed by placing a large drop of the ddH2O on parafilm and allowing the grid to touch the water drop, with the sample-loaded surface facing the parafilm. The grid was tilted and water was gently absorbed from the edge of the grid using a filter paper sliver. This procedure was repeated 3 times. Immediately after rinsing, the staining was conducted by placing a large drop of the uranyl acetate (UA) stain solution on parafilm and allowing the grid to touch the stain solution drop, with the sample-loaded surface facing the parafilm. The grid was tilted and the stain solution was gently absorbed from the edge of the grid using a filter paper sliver. Next, the grid was allowed to dry in air and the grid was examined as soon as possible.
To further understand the inhibitory activity of 1a, transmission electron microscopy (TEM) was used to confirm the EISA of 1b. […] In contrast, uniform nanofibers (diameter of 10±2 nm) formed after the addition of ALP (1 U/mL) into the solution of 1a (FIG. 3B). The resulted nanofibers entangled with each other to result in a viscous solution. […] But the direct dissolution of 2b (1.0 wt %) provided an aqueous solution containing nanoribbon with the diameter of 17±2 nm and in several hundred nanometer length (FIG. 4B). These observations, collectively, confirmed that enzymatic reaction modulated the morphology of the assemblies of the cholesterol conjugates, which partially contributed to the different inhibitory activities of 1a, 1b, 2a, and 2b. That is, being exposed to the cancer cell, 1a (or 2a) turns into 1b (or 2b), a process catalyzed by the extra- or intracellular enzymes of the cancer cells; the resulting 1b (or 2b) self-assembled to form nanoscale assemblies that result in death of the cancer cell.

The subject of data set [2] is HepG2 human liver carcinoma cells. As to the kind of experiment: MTT assay, cell viability of HepG2. As to conditions: read-out: IC50 against HepG-2. Type of data set: cell-based. Here is the method: (§1) HeLa, Saos-2, HS-5, HepG2, T98G, and A2780 cells were purchased from American-type Culture Collection (ATCC, USA). A2780cis cell was purchased from Sigma. HeLa cells, HepG-2 cells, and T98G cells were cultured in MEM Medium supplemented with 10% v/v fetal bovine serum, 100 U/mL penicillin, and 100 μg/mL streptomycin. Saos-2 cells were cultured in McCoy's 5a Medium (for Saos-2) supplemented with 15% v/v fetal bovine serum, 100 U/mL penicillin, and 100 μg/mL streptomycin. HS-5 cells were cultured in Dulbecco's Modified Eagle's medium (DMEM) supplemented with 10% v fetal bovine serum (FBS), 100 U/mL penicillin, and 100 μg/mL streptomycin. A2780cis cells were cultured in RPMI 1640 Medium supplemented with 10% v/v fetal bovine serum, 100 U/mL penicillin, and 100 μg/mL streptomycin (cisplatin only necessary every 2-3 passages). All cells were maintained at 37° C. in a humidified atmosphere of 5% CO2.
(§2) An MTT assay was used to test the cytotoxicity. All different cell lines were seeded in 96-well plates at 1×10^5 cells/well for 24 hours followed by removal of the culture medium and subsequent addition of culture medium containing different concentrations of the precursors. […] The absorbance of each well at 595 nm was measured by a multimode microplate reader. […]

Data set [3] deals with lipid rafts in HeLa cell. As to the kind of experiment: Laurdan staining of lipid rafts, HeLa. Format: cell-based, human. As to conditions: 1a 25 μM, 12 hours.
Data set [4] relates to Saos-2 osteosarcoma cells. Nature of the data set: MTT assay, cell viability of Saos-2. Format: cell-based. As to conditions: Homo sapiens, read-out: IC50 against Saos-2. The protocol: as §1, §2
Data set [5] relates to HS-5 cell line (human bone marrow stroma cell line). As to the kind of experiment: MTT assay, cell viability of HS-5. Type of data set: cell-based. Conditions: for IC50: Homo sapiens, HS5, read-out: IC50 against HS-5. The protocol:
as §1
(§3) An MTT assay was used to test the cytotoxicity. All different cell lines were seeded in 96-well plates at 1×10^5 cells/well for 24 hours followed by removal of the culture medium and subsequent addition of culture medium containing different concentrations of the precursors. At designated time (24/48/72 hours), 10 μL MTT solution (5 mg/mL) was added to each well and incubated at 37° C. for another 4 hours, and then 100 μL of SDS-HCl solution was added to stop the reduction reaction and dissolve the purple formazan. The absorbance of each well at 595 nm was measured by a multimode microplate reader. The cytotoxicity assay was performed three times and the average value of the three measurements was taken.
To verify the selectivity of 1a against cancer cells, the HS-5 cell line (human bone marrow stroma cell line) was used; HS-5 hardly overexpresses ALP on cell surface. […] To further confirm that ALP on cell surface (i.e., as an ectophosphatase) contributed to the inhibitory activity of 1a, A2780cis were incubated with 1a and ALP (1 U/mL).
(§4) Additional cell viability assays were carried out using conjugates 1a and 1b, optionally with 3, against HepG2 human liver carcinoma cells, Saos-2 osteosarcoma cells, T98G glioblastoma cells, HS-5 (normal bone marrow stromal cells), A2780 ovarian cancer cells (parental line to A2780cis), and Kuramochi ovarian cancer cells. Conjugate 1a was particularly effective against ovarian and cervical cancer cells.
Background: Tetrazolium assays rely on reduction of a dye to a coloured formazan, in cell work by metabolically active cells.

Data set [6] concerns T98G glioblastoma cells. Nature of the data set: MTT assay, cell viability of T98G. Type of data set: cell-based. Conditions: Homo sapiens, read-out: IC50 against T98G. Here is the method: as §1, §2
For data set [7], the system named is Kuramochi ovarian cancer cells. As to the kind of experiment: MTT assay, cell viability of Kuramochi. Format: cell-based. Conditions: read-out: IC50 against Kuramochi. The protocol: as §3, §4
For data set [8], the system named is A2780cis cells. As to the kind of experiment: MTT assay, cytotoxicity against A2780cis. Type of data set: cell-based, human. The protocol: as §1, §3
The activity of conjugate 1a against a platinum-resistant, ovarian cancer cell line (A2780cis) (Behrens et al., “Characterization of a Cis-Diamminedichloroplatinum(Ii)-Resistant Human Ovarian Cancer Cell Line and its Use in Evaluation of Platinum Analogues,” Cancer Res. 47:414 (1987); Masuda et al., “Increased DNA Repair as a Mechanism of Acquired Resistance to Cis-Diamminedichloroplatinum (II) in Human Ovarian Cancer Cell Lines,” Cancer Res. 48:5713 (1988), which are hereby incorporated by reference in their entirety) was first examined. To assess the efficacy of conjugate 1a, the assay was carried out in parallel using the known, clinically used cytotoxic agent, cisplatin.

Converted amounts (≈) assume the structure as drawn. “And” between values parts separate entries of the source, which are not always exact repeats. Identical values can stand only once. Like-named read-outs stand apart in the source and are kept apart here.

Usually IC50 stands for the concentration at which inhibition is half-maximal. As to `CC(C)CCC[C@@H](C)C1CC[C@H]2[C@@H]3CC=C4CC(OC(=O)NC(Cc5ccc(OP(=O)(O)O)cc5)C(=O)O)CC[C@]4(C)[C@H]3CC[C@]12C` (stereo partly drawn) [1a, Cholesterol-(phospho)D-Tyr], the “morphology in aqueous solution without ALP” value in data set [1] (pH 7.4) is reported as “disorder aggregates”. The “diameter of nanofibers formed after addition of ALP” value in data set [1] (pH 7.4, ALP 1 U/mL, 24 hours) is on record as 10±2 nm. The IC50 in data set [2] (48 hours) came to 45 µM; in data set [2] (72 hours), 35 µM; in data set [4] (48 hours), 41 µM; in data set [4] (72 hours), 26 µM; in data set [5] (48 hours), 32 µM; in data set [5] (72 hours), 21 µM. Besides, the concentration for half-maximal inhibition (IC50) in data set [6] (48 hours) is 48 µM; in data set [6] (72 hours) it was 37 µM; in data set [7] (48 hours), 19 µM; in data set [7] (72 hours), 13 µM; in data set [8] (Homo sapiens, A2780cis, 48 h, read-out: IC50 against A2780cis, 48 hours) it was 11 µM and 7.7 µg/mL; in data set [8] (read-out: IC50 against A2780cis, 72 hours) it was 9 µM. The “number of green fluorescent puncta in cell membrane (laurdan, lipid rafts)” value in data set [3] is listed as “increased considerably”. The “cell viability / proliferation of HS-5” value in data set [5] (12.5 μM, 48 hours (FIG. 5A)) was “innocuous”. Further, the “cell viability of A2780cis treated by 1a with exogenous ALP” value in data set [8] (1a 12.5 μM + ALP 1 U/mL, 48 hour co-culture) is reported as “partially rescued”. Moreover, the “cell viability of A2780cis treated by 1a with ALP inhibitors” value in data set [8] (1a 12.5 μM + L-Phe or levamisole 1 mM, 48 hours) is “higher cell viability”. For the same molecule, the “cell viability of A2780cis treated by 1a with cell death signaling inhibitors” value in data set [8] (1a 12.5 μM + zVAD-fmk 50 μM, PJ34 1 μM or Nec-1 45 μM, 48 hours) is “rescued the cells, but only partially”. In addition, the “IC50 against A2780cis” value in data set [8] (72 hours) was found to be 6.3 µg/mL (≈ 9.35 µM). In addition, the “cells viable (cell viability test, A2780cis)” value in data set [8] (incubated with 1a at 24 hours) is reported as “more than 80%”.

(Values after US11040108B2, “Amino acid- and peptide-steroid conjugates and use thereof” (BRANDEIS UNIVERSITY, priority 2016, dated 2021).)
